Measurements taken from patent US20260262643A1, “HERBICIDAL BENZOXAZINES” (FMC CORPORATION, priority 2022, published 2026).

Assays:
[1] = tested on: barnyardgrass; experiment: Test C preemergence; format: in vivo, Echinochloa crusgalli
Outline: (§1)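 Test material, in non-phytotoxic solvent with surfactant, was sprayed on the soil directly after seeding (preemergence) or on young plants of 2–10 cm with one to two leaves (postemergence). Greenhouse, 10 days; 0–100 visual control scale.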

[2] = tested on: blackgrass; experiment: Test C preemergence; format: in vivo, Alopecurus myosuroides
Outline: as §1

[3] = tested on: corn; experiment: Test C preemergence; format: in vivo, Zea mays
Outline: as §1

[4] = tested on: green foxtail; experiment: Test C preemergence; format: in vivo, Setaria viridis
Outline: as §1

[5] = tested on: kochia; experiment: Test C preemergence; format: in vivo, Bassia scoparia
Outline: as §1

[6] = tested on: oat, wild; experiment: Test C preemergence; format: in vivo, Avena fatua
Outline: as §1

[7] = tested on: pigweed, palmer; experiment: Test C preemergence; format: in vivo, Amaranthus palmeri
Outline: as §1

[8] = tested on: ragweed; experiment: Test C preemergence; format: in vivo, Ambrosia artemisiifolia
Outline: as §1

[9] = tested on: ryegrass, Italian; experiment: Test C preemergence; format: in vivo, Lolium multiflorum
Outline: as §1

[10] = tested on: soybean; experiment: Test C preemergence; format: in vivo, Glycine max
Outline: as §1

[11] = tested on: wheat; experiment: Test C preemergence; format: in vivo, Triticum aestivum
Outline: as §1

[12] = tested on: barnyardgrass; experiment: Test C postemergence; format: in vivo, Echinochloa crusgalli; settings: 10 days, 0 to 100 scale (0 no effect, 100 complete control)
Outline: as §1

[13] = tested on: blackgrass; experiment: Test C postemergence; format: in vivo, Alopecurus myosuroides; settings: 10 days, 0 to 100 scale (0 no effect, 100 complete control)
Outline: as §1

[14] = tested on: corn; experiment: Test C postemergence; format: in vivo, Zea mays; settings: 10 days, 0 to 100 scale (0 no effect, 100 complete control)
Outline: as §1

[15] = tested on: green foxtail; experiment: Test C postemergence; format: in vivo, Setaria viridis; settings: 10 days, 0 to 100 scale (0 no effect, 100 complete control)
Outline: as §1

[16] = tested on: kochia; experiment: Test C postemergence; format: in vivo, Bassia scoparia; settings: 10 days, 0 to 100 scale (0 no effect, 100 complete control)
Outline: as §1

[17] = tested on: oat, wild; experiment: Test C postemergence; format: in vivo, Avena fatua; settings: 10 days, 0 to 100 scale (0 no effect, 100 complete control)
Outline: as §1

[18] = tested on: pigweed, palmer; experiment: Test C postemergence; format: in vivo, Amaranthus palmeri; settings: 10 days, 0 to 100 scale (0 no effect, 100 complete control)
Outline: as §1

[19] = tested on: ragweed; experiment: Test C postemergence; format: in vivo, Ambrosia artemisiifolia; settings: 10 days, 0 to 100 scale (0 no effect, 100 complete control)
Outline: as §1

[20] = tested on: ryegrass, Italian; experiment: Test C postemergence; format: in vivo, Lolium multiflorum; settings: 10 days, 0 to 100 scale (0 no effect, 100 complete control)
Outline: as §1

[21] = tested on: soybean; experiment: Test C postemergence; format: in vivo, Glycine max; settings: 10 days, 0 to 100 scale (0 no effect, 100 complete control)
Outline: as §1

[22] = tested on: wheat; experiment: Test C postemergence; format: in vivo, Triticum aestivum; settings: 10 days, 0 to 100 scale (0 no effect, 100 complete control)
Outline: as §1

[23] = tested on: galium; experiment: Test C postemergence; format: in vivo, Galium aparine; settings: 10 days, 0 to 100 scale (0 no effect, 100 complete control)
Outline: as §1

[24] = tested on: horseweed; experiment: Test C postemergence; format: in vivo, Erigeron canadensis; settings: 10 days, 0 to 100 scale (0 no effect, 100 complete control)
Outline: as §1

[25] = tested on: barnyardgrass; experiment: Test D flooded paddy test; format: in vivo, Echinochloa crus-galli; settings: 250 g ai/ha, applied to paddy water, visual rating after 13 to 14 days, scale 0 to 100 (0 no effect, 100 complete control)
Outline: (§2)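 2-leaf plants; flood 3 cm above soil; compound dosed into paddy water; greenhouse 13–14 d; visual rating vs controls, 0–100 (100 = complete control); dash = not tested.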

[26] = tested on: ducksalad; experiment: Test D flooded paddy test; format: in vivo, Heteranthera limosa; settings: 250 g ai/ha, applied to paddy water, visual rating after 13 to 14 days, scale 0 to 100 (0 no effect, 100 complete control)
Outline: as §2

[27] = tested on: rice; experiment: Test D flooded paddy test; format: in vivo, Oryza sativa; settings: 250 g ai/ha, applied to paddy water, visual rating after 13 to 14 days, scale 0 to 100 (0 no effect, 100 complete control)
Outline: as §2

[28] = tested on: sedge, umbrella; experiment: Test D flooded paddy test; format: in vivo, Cyperus difformis; settings: 250 g ai/ha, applied to paddy water, visual rating after 13 to 14 days, scale 0 to 100 (0 no effect, 100 complete control)
Outline: as §2

[29] = 500 g ai/ha, preemergence, 0 to 100 scale (0 no effect, 100 complete control)
[30] = Preemergence, 125 g ai/ha, 0 to 100 scale, 0 no effect, 100 complete control

What does the source list for `Cc1ccc(-n2cnc(CC#N)n2)cc1C(=O)N1C[C@H](C)Oc2c(Cl)cccc21` [Compound 364]?
Barnyardgrass plant response rating [1, 29]: 100; Plant response rating, Barnyardgrass [1, 30]: 50; Blackgrass plant response rating [2, 29]: 90; Plant response rating, Blackgrass [2, 30]: 60; Corn plant response rating [3, 29]: 30; Plant response rating, Corn [3, 30]: 10; Foxtail, Green plant response rating [4, 29]: 100; Plant response rating, Foxtail, Green [4, 30]: 100; Kochia plant response rating [5, 29]: 90; Plant response rating, Kochia [5, 30]: 70; Oat, Wild plant response rating [6, 29]: 30; Plant response rating, Oat, Wild [6, 30]: 10; Pigweed, Palmer plant response rating [7, 29]: 100; Plant response rating, Pigweed, Palmer [7, 30]: 100; Ragweed plant response rating [8, 29]: 80; Plant response rating, Ragweed [8, 30]: 20; Ryegrass, Italian plant response rating [9, 29]: 90; Plant response rating, Ryegrass, Italian [9, 30]: 60; Soybean plant response rating [10, 29]: 100; Plant response rating, Soybean [10, 30]: 100; Wheat plant response rating [11, 29]: 40; Plant response rating, Wheat [11, 30]: 0; Plant response rating, Barnyardgrass ([12]; 500 g ai/ha, postemergence): 80; Plant response rating, Barnyardgrass ([12]; Postemergence, 125 g ai/ha): 50; Plant response rating, Blackgrass ([13]; 500 g ai/ha, postemergence): 100; Plant response rating, Blackgrass ([13]; Postemergence, 125 g ai/ha): 90; Plant response rating, Corn ([14]; 500 g ai/ha, postemergence): 50; Plant response rating, Corn ([14]; Postemergence, 125 g ai/ha): 30; Plant response rating, Foxtail, Green ([15]; 500 g ai/ha, postemergence): 90; Plant response rating, Foxtail, Green ([15]; Postemergence, 125 g ai/ha): 80; Plant response rating, Kochia ([16]; 500 g ai/ha, postemergence): 90; Plant response rating, Kochia ([16]; Postemergence, 125 g ai/ha): 70; Plant response rating, Oat, Wild ([17]; 500 g ai/ha, postemergence): 70; Plant response rating, Oat, Wild ([17]; Postemergence, 125 g ai/ha): 60; Plant response rating, Pigweed, Palmer ([18]; 500 g ai/ha, postemergence): 90; Plant response rating, Pigweed, Palmer ([18]; Postemergence, 125 g ai/ha): 70; Plant response rating, Ragweed ([19]; 500 g ai/ha, postemergence): 80; Plant response rating, Ragweed ([19]; Postemergence, 125 g ai/ha): 70; Plant response rating, Ryegrass, Italian ([20]; 500 g ai/ha, postemergence): 100; Plant response rating, Ryegrass, Italian ([20]; Postemergence, 125 g ai/ha): 70; Plant response rating, Soybean ([21]; 500 g ai/ha, postemergence): 100; Plant response rating, Soybean ([21]; Postemergence, 125 g ai/ha): 100; Plant response rating, Wheat ([22]; 500 g ai/ha, postemergence): 80; Plant response rating, Wheat ([22]; Postemergence, 125 g ai/ha): 30; Plant response rating, Galium ([23]; 500 g ai/ha, postemergence): 100; Plant response rating, Galium ([23]; Postemergence, 125 g ai/ha): 100; Plant response rating, Horseweed ([24]; 500 g ai/ha, postemergence): 0; Plant response rating, Horseweed ([24]; Postemergence, 125 g ai/ha): 0; Plant response rating, Barnyardgrass (Flood) [25]: 10; Plant response rating, Ducksalad (Flood) [26]: 80; Plant response rating, Rice (Flood) [27]: 10; Plant response rating, Sedge, Umbrella (Flood) [28]: 95
